The source of these data is article PMC12195836, “From Ethnopharmacology to Active Compound: Effects of Traditional Plant Extracts on Varicose Vein-Related Enzymes and Isolation of Active Flavonoids from Helichrysum plicatum DC. subsp. plicatum” (Pharmaceuticals, 2025).

Where two headings read alike, the source gives them in different places.

One assay has as its target collagenase. Kind of assay: Collagenase inhibition, modified spectrophotometric method. The format is biochemical. As for the experimental part: (§1) All plant samples were macerated using 80% ethanol at room temperature for 5 days. Subsequently, filter paper was used to filter the samples, and the remaining filtrate was evaporated to dryness in a rotary evaporator (Büchi, Flawil, Switzerland). The extracts were weighed and dissolved in dimethyl sulfoxide (DMSO) to reach a concentration of 2 mg/mL, which was used in the in vitro experiments.
The enzyme inhibition assays conducted in this study included elastase, collagenase, hyaluronidase, XO, and prolyl POP inhibition and were performed using an ELISA microplate reader (Spectramax i3x microplate reader with Softmax® Pro Software for Windows 10; Molecular Devices, San Jose, USA). Elastase inhibition by the extracts was assessed using a modified spectrophotometric method based on Kraunsoe et al. (1996) and Lee et al. (2009). Collagenase inhibition was evaluated using the modified spectrophotometric method by Barrantes and Guinea 2003 [67], which was originally developed by Wart and Steinbrink (1981). The LOX inhibitory activities of the extracts were determined following the method of Chung et al. (2009), with minor modifications. XO inhibition was measured spectrophotometrically by monitoring the absorbance at 295 nm from uric acid formed during an enzymatic reaction. […]

Assay [1] in a line: Nitric oxide radical-scavenging activity. As for the experimental part:
as §1
The determination of the superoxide radical (O2^•−)-scavenging effect was conducted using the method described by Duh et al.. To assess the nitric oxide (NO)-scavenging effect, the method of Sreejayan and Rao was utilised with some modifications.

In the next assay the target is xanthine oxidase (XO) (Homo sapiens, UniProt P47989). Kind of assay: XO enzyme inhibition, spectrophotometric (uric acid formation at 295 nm). The format is biochemical. As for the experimental part:
as §1
(§2) The enzyme inhibition assays conducted in this study included elastase, collagenase, hyaluronidase, XO, and prolyl POP inhibition and were performed using an ELISA microplate reader (Spectramax i3x microplate reader with Softmax® Pro Software for Windows 10; Molecular Devices, San Jose, USA).

The test system of a further assay is XO. To be noted: cited from earlier work.
In a further assay the target is POP enzyme. The settings on record: cited from earlier work.
On the set-up of assay [2]: method as in earlier work. The settings on record: cited from earlier work.
The test system of a further assay is LOX. On the set-up: method as in PMID 27316769. The settings on record: dose-dependent; read-out: LOX inhibition IC50; cited from earlier work.
The next assay deals with hyaluronidase. Kind of assay: Hyaluronidase enzyme inhibition assay. It counts as biochemical. As for the experimental part:
as §1, §2

Chain of xanthine oxidase (XO) (P47989 whole entry, species assumed): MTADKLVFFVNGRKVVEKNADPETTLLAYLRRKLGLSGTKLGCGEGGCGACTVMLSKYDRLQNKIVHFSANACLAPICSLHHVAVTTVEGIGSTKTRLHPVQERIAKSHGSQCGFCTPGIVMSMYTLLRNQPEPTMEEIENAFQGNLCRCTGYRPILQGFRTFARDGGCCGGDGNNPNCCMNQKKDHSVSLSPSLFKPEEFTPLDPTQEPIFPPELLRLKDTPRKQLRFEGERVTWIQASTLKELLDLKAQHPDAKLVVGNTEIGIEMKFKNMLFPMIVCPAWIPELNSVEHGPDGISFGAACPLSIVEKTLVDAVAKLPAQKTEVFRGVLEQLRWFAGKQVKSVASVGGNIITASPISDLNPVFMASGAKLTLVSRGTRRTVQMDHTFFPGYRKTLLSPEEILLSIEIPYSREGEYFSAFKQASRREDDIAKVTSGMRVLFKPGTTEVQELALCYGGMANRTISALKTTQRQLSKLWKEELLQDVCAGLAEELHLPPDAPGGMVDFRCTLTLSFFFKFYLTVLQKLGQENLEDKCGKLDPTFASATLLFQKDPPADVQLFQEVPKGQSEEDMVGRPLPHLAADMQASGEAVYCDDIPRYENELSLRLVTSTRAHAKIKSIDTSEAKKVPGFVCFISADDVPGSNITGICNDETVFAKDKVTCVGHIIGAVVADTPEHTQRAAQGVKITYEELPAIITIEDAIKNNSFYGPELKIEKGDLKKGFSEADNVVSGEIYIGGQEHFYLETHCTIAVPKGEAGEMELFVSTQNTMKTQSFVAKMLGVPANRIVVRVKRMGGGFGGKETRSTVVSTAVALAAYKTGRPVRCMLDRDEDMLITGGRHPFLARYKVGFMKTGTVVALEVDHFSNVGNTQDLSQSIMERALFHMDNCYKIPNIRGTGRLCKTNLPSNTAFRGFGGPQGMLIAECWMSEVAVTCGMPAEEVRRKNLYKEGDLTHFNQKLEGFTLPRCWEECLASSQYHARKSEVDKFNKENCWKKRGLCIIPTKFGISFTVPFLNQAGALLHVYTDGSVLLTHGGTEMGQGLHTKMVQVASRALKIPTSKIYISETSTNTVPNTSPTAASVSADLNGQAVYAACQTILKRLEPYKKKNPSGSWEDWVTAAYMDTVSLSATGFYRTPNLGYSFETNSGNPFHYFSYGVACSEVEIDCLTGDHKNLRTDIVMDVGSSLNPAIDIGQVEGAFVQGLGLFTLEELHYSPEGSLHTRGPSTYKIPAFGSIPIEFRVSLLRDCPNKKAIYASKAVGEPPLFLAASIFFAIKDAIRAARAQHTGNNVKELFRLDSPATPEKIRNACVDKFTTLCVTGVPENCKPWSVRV

For the compound `c1cnc2c(c1)ccc1cccnc12` [1,10-phenanthroline], the “Collagenase inhibition IC50” value on collagenase is recorded as 27.95 ± 0.3 µg/mL. For the same compound, the “Collagenase Enzyme Inhibition (% Inhibition ± S.D.), reference” value with collagenase (References (1 mg/mL)) came to 87.39 ± 2.85%.
Consider `O=C1O[C@H]([C@@H](O)CO)C(O)=C1O` [Vitamin C], for which the “Nitric oxide radical-scavenging IC50” value in assay [1] came out at 25.28 ± 2.98 µg/mL. Also, the “Nitric Oxide Radical-Scavenging Activity (% Inhibition ± S.D.), reference” value in assay [1] (Vitamin C (1 mg/mL)) was 92.72 ± 0.10%.
Consider `Oc1ncnc2[nH]ncc12` [allopurinol, reference compound], for which the inhibition at 25 µg/mL at xanthine oxidase (XO) (read-out: XO Enzyme Inhibition (% Inhibition ± S.D.)) stood at 91.6 ± 1.3%. Also, at xanthine oxidase (XO) (read-out: XO Enzyme Inhibition (% Inhibition ± S.D.), reference), the inhibition at 500 µg/mL came out at 91.6 ± 1.3%. Further, the IC50 in the assay with XO (read-out: XO inhibition IC50) was 4.05 µM.
For the compound `O=c1cc(-c2ccc(O)cc2)oc2cc(O)cc(O)c12` [apigenin], the IC50 is 40.1 µM against xanthine oxidase (XO) and 3.57 µM with XO (competitive inhibitor, read-out: XO inhibition IC50).
`COc1ccc2cc3[n+](cc2c1OC)CCc1cc2c(cc1-3)OCO2` [berberine]: the IC50 on POP enzyme (read-out: POP inhibition IC50) is 142 ± 21.5 µM.
As for `O=c1cc(-c2ccc(O)c(O)c2)oc2cc(O)cc(O)c12` [luteolin], the half-maximal inhibitory concentration (IC50) against xanthine oxidase (XO) is 49.8 µM; in the assay on XO (flavonoids isolated from Blumea balsamifera L., read-out: XO inhibitory activity IC50), 2.38 ± 0.01 µM; with XO (read-out: XO inhibition IC50) it was 0.96 µM. The “POP inhibition IC50” value at POP enzyme is 0.17 ppm.
Regarding `O=C1C[C@@H](c2ccc(O)cc2)Oc2cc(O)cc(O)c21` [naringenin], the IC50 was 130 µM at xanthine oxidase (XO) and 4.57 µM with XO (read-out: XO inhibition IC50). In addition, the “inhibitory activity against XO (in words)” value in the assay on XO is recorded as “moderate inhibitory activity”. Moreover, in the assay on POP enzyme, the “inhibitory activity against the POP enzyme (in words)” value is on record as “did not exhibit inhibitory activity”.
`O=c1c(O)c(-c2ccc(O)c(O)c2)oc2cc(O)cc(O)c12` [quercetin]: the “NO radical-scavenging activity IC50” value in assay [2] was 160 ± 10 µg/mL.
In the case of `Oc1ccc2c(c1)OCO2` [sesamol], the IC50 with LOX is 51.8 µM.
With tannic acid, the “Hyaluronidase inhibition IC50” value at hyaluronidase worked out at 2.31 ± 0.73 µg/mL. In addition, in the assay on hyaluronidase (References (1 mg/mL)), the “Hyaluronidase Enzyme Inhibition (% Inhibition ± S.D.), reference” value is recorded as 92.51 ± 3.53%.
